Structures are written as SMILES.

In the test the target is T1, human MC1 receptor (Homo sapiens, UniProt Q01726).
T1 construct: expressed in transfected cells; host or cells: FreeStyle 293-F cells (transient, electroporation)
Briefly: Human MC1 receptor activation, cAMP production in cells transiently expressing the receptor. Format: cell-based. The conditions noted are these: FreeStyle 293-F cells expressing human MC1 receptor, α-MSH maximum = 100%. From the text: (1) Construction of Human MC Receptor-Expressing Vector
A human MC4 receptor gene (GenBank Accession No.: NM_005912.2), a human MC1 receptor gene (GenBank Accession No.: NM_002386.3), or a human MC3 receptor gene (GenBank Accession No.: NM_019888.3) was introduced into an expression vector pcDNA™ 3.1N/V5-His TOPO (registered trademark) (Thermo Fisher Scientific Inc).
(2) Construction of Cells Transiently Expressing Human MC Receptor
An expression vector for a human MC4, MC1, or MC3 receptor was introduced into FreeStyle™ 293-F cells (Thermo Fisher Scientific Inc., product number: R790-07). For the introduction, electroporation was employed. That is, 1×10^7 FreeStyle™ 293-F cells were suspended in 80 μL of an Electroporation Buffer (Thermo Fisher Scientific Inc., product number: B201-100), and 20 μg of the expression vector was added thereto. The resultant was put into a cuvette (OC-100 Processing Assembly, MaxCyte, Inc.) and electroporated with MaxCyte STX (registered trademark) (MaxCyte, Inc.). The cells were cultured for a day, suspended in a Cell Banker (registered trademark) 1 (TAKARA BIO INC. or JUJI FIELD Inc., product number: BLC-1), and stored frozen until they were used.
(3) Measurement of Amount of cAMP Production
Measurement was carried out by using a LANCE (registered trademark) Ultra cAMP Kit (PerkinElmer, Inc.) in accordance with the attached instructions. That is, after dissolution in DMSO, the test compound (a final concentration of 1 pM to 30 μM) diluted with an assay buffer (Hank's balanced salt solution, 5 mM 4-(2-hydroxyethyl)-1-piperazineethanesulfonic acid (HEPES), 0.5 mM 3-isobutyl-1-methylxanthine (IBMX), 0.1% bovine serum albumin, pH 7.4), or α-MSH (Bachem Inc., a final concentration of 1 pM to 30 μM) was added to OptiPlate-384 (PerkinElmer, Inc.). Furthermore, the suspension of the cells transiently expressing the human MC4, MC1, or MC3 receptor prepared using the assay buffer was added thereto at 1,000 cells/well, and then left to stand at room temperature for about 1 hour. Thereafter, an Eu-cAMP tracer solution and an ULight™-anti-cAMP solution were added thereto, and then the resulting solution was left to stand at room temperature for about 1 hour. The amount of cAMP was calculated using EnVision (registered trademark) (PerkinElmer Inc.).
For the agonistic activity, the efficacy (EC50 (μM)) was calculated by a non-linear regression method with a Sigmoid-Emax model, by defining the maximum reaction using α-MSH as 100% and the reaction using the vehicle alone as 0%, respectively.

T1 sequence (Q01726 whole entry): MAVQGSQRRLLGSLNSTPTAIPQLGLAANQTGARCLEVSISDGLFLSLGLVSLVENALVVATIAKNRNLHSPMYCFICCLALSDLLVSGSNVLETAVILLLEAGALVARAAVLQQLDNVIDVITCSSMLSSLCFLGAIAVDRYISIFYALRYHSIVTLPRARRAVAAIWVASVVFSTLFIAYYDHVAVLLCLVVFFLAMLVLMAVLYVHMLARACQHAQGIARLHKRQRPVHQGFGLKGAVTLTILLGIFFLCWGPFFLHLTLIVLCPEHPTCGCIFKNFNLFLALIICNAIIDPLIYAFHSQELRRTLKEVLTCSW

Regarding `CC(=O)N[C@@H](CC(C)C)C(=O)N1CCN(C(=O)[C@@H]2CN(C(C)(C)C)C[C@H]2c2ccc(Cl)cc2F)C[C@H]1C` [Example 5], a half-maximal effect (EC50) was put at 710 nM. Then `CC(=O)N[C@@H](CC(C)(C)C)C(=O)N1CCN(C(=O)[C@@H]2CN(C(C)(C)C)C[C@H]2c2ccc(F)cc2F)[C@@H](C)C1.Cl` [Example 8], with 1700 nM. Consider `CC(=O)N[C@H](C(=O)N1CCN(C(=O)[C@@H]2CN(C(C)(C)C)C[C@H]2c2ccc(F)cc2F)[C@@H](C)C1)C1CCCCC1.Cl` [Example 6, N-{(1S)-2-[(3S)-4-{[(3S,4R)-1-tert-butyl-4-(2,4-difluorophenyl)pyrrolidin-3-yl]carbonyl}-3-methylpiperazin-1-yl]-1-cyclohexyl-2-oxoethyl}acetamide monohydrochloride], for which the EC50 worked out at 2600 nM.

`CC(=O)N[C@@H](CC(C)(C)C)C(=O)N1C[C@H](C)N(C(=O)[C@@H]2CN(C(C)(C)C)C[C@H]2c2ccc(F)cc2F)C[C@H]1C.Cl` [Example 4, N-{(2S)-1-[(2R,5S)-4-{[(3 S,4R)-1-tert-butyl-4-(2,4-difluorophenyl)pyrrolidin-3-yl]carbonyl}-2,5-dimethylpiperazin-1-yl]-4,4-dimethyl-1-oxopentan-2-yl}acetamide monohydrochloride] came in with an EC50 of 1000 nM. This EC50 is about 2.6-fold lower than that of the compound before. Consider `CC(=O)N[C@@H](CC(C)(C)C)C(=O)N1C[C@H](C)N(C(=O)C2CN(C(C)(C)C)CC2c2ccc(F)cc2)C[C@H]1C.Cl` (some centres unmarked) [Example 11], for which the EC50 is 1600 nM.
